Measured values from patent publication US6358928B1, “Peptidyl sulfonyl imidazolides as selective inhibitors of serine proteases” (Enzyme Systems Products, priority 1999, dated 2002).

Tests used:
[1] = molecular target: T1, human leukocyte elastase (Homo sapiens, UniProt P08246); assay: Inhibition of human leukocyte elastase (kobs/[I], spectrophotometric, MeOSuc-Ala-Ala-Pro-Val-AMC substrate); assay type: biochemical
T1 sequence (P08246 30-267): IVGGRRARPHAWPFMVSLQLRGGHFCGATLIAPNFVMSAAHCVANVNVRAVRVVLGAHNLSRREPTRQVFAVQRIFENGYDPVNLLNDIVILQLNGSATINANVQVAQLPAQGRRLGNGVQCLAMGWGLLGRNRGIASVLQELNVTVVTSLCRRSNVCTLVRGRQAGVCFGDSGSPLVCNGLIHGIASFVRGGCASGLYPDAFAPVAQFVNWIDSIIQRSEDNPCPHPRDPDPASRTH
Description: (§1) Z-Ala-Ala-AlaCH2SO2-Im, prepared as in Example 1, was assayed for serine protease inhibition activity against human leukocyte elastase. Various concentrations of inhibitor were rapidly mixed with fixed aliquots of enzyme and allowed to react for at least two half-lives. Aliquots of the treated enzyme were then assayed spectrophotometrically for protease activity using MeOSuc-Ala-Ala-Pro-Val-AMC as the substrate to determine kobs/[I]. […] 359-361 (1975), incorporated herein by reference.

[2] = molecular target: T2, human cathepsin G (Homo sapiens, UniProt P08311); assay: Inhibition of human cathepsin G, assayed as in Example 2; assay type: biochemical; details: present-tense example
T2 sequence (P08311 21-244): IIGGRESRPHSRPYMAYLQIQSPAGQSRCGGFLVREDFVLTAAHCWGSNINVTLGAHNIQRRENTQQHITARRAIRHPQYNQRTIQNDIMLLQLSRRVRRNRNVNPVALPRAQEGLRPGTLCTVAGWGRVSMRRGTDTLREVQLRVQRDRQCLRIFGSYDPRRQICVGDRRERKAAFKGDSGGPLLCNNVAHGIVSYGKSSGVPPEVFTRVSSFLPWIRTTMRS
Description: as §1
MeOSuc-Ala-Ala-Pro-ValCH2SO2-Im is prepared as in example 3 and assayed as in Example 2 for inhibition of human leukocyte elastase and human cathepsin G with the corresponding peptidyl chloromethane, MeOSuc-Gly-Leu-PheCH2SO2-Im, and Z-Ala-Ala-AlaCH2SO2-Im as comparator inhibitors.
Z-Gly-Leu-PheCH2SO2-Im is prepared as in Example 5, and is assayed as in Example 2 for inhibition of human cathepsin G and human leukocyte elastase with the corresponding peptidyl chloromethane, MeOSuc-Ala-Ala-Pro-ValCH2SO2-Im, and Z-Ala-Ala-AlaCH2SO2-Im as comparator inhibitors.

[3] = enzyme concentration 200 μM, substrate 100 μM, inhibitor 200 μM

With `CC(C)C[C@H](NC(=O)CNC(=O)OCc1ccccc1)C(=O)N[C@@H](Cc1ccccc1)CS(=O)(=O)n1ccnc1` [Z-Gly-Leu-PheCH2SO2-Im] the “kobs/[I] against human leukocyte elastase compared with MeOSuc-Ala-Ala-Pro-ValCH2SO2-Im” value ([1]; present-tense example) was “significantly lower” and the “kobs/[I] against human cathepsin G compared with comparator inhibitors” value ([2]; comparators: corresponding peptidyl chloromethane, MeOSuc-Ala-Ala-Pro-ValCH2SO2-Im, Z-Ala-Ala-AlaCH2SO2-Im) was “significantly higher”.

For MeOSuc-Ala-Ala-Pro-ValCH2SO2-Im, the “kobs/[I] against human leukocyte elastase compared with comparator inhibitors” value ([1]; comparators: corresponding peptidyl chloromethane, MeOSuc-Gly-Leu-PheCH2SO2-Im, Z-Ala-Ala-AlaCH2SO2-Im, present-tense example) was “significantly higher” and the “kobs/[I] against human cathepsin G compared with MeOSuc-Gly-Leu-PheCH2SO2-Im” value [2] was “significantly lower”.

`C[C@H](NC(=O)OCc1ccccc1)C(=O)N[C@@H](C)C(=O)N[C@@H](C)CS(=O)(=O)n1ccnc1` [Z-Ala-Ala-AlaCH2SO2-Im] was tested, and the “times more potent than the corresponding peptidyl chloromethane inhibitor” value ([1]; comparator value as reported in Tuhy and Powers, FEBS Letters 50, 359-361 (1975)) was 45 times, the kobs [1, 3] was 0.0025 s⁻¹ and the “kobs/[I]” value [1, 3] was 12.7 M⁻¹ s⁻¹.
